The text below walks through data of patent publication US10858684B2, “Mutant microorganisms resistant to lactose killing” (Inbiose N.V., priority 2014, dated 2020).

The structures appear in SMILES notation. Where two headings read alike, the source gives them in different places.

The test system of the assay is E. coli lactose permease expression cassette mutant strains. The assay can be described thus: Chloramphenicol resistance / MIC of strains with lactose permease translationally coupled to chloramphenicol resistance gene. The format is cell-based, Escherichia coli. Conditions: for MIC: Escherichia coli. The source says:
Two strains were constructed in which lactose permease was knockout out from the genome. In both strains a pSC101 plasmid containing a kanamycin resistance gene was transformed, with the difference that one of the plasmids contained a constitutively expressed lactose permease as described in Example 1 and 2, resulting in a reference strain MG1655ΔlacY pSC101_kan and the lacY_cat translational coupled strain MG1655ΔlacY pSC101_kan_lacYsynthetic_cat as described in Example 4 and FIG. 5. Both strains were grown in a minimal medium as described above at different chloramphenicol concentrations (between 0 and 30 mg/l).
This method is however limited by the expression of the beta galactosidase gene which becomes the rate limiting step for growth. Therefore, the expression of the lactose permease gene was measured via the above described translational coupling system described above. The minimal inhibition concentration (MIC) for chloramphenicol is indicative for the expression of the lactose permease gene and this was determined for each of the cassettes. The lowest MIC that still resulted into the same growth rate compared to the wild type was used as an indicator for the expression of the wild type lactose permease expression.

Turning to `O=C(N[C@H](CO)[C@H](O)c1ccc([N+](=O)[O-])cc1)C(Cl)Cl` [chloramphenicol], the MIC runs as follows: (read-out: minimal inhibition concentration (MIC), cassettes with the lowest MIC that have the same growth rate as the wild type strain) ~20 µg/mL; (read-out: minimal inhibition concentration (MIC), mutant strains with a slightly lower growth rate) 15 to 20 µg/mL; (read-out: minimal inhibition concentration (MIC), mutant strains with equal or higher growth rate) 20 to 80 µg/mL. The “growth inhibition of reference strain MG1655ΔlacY pSC101_kan versus lacY_cat coupled strain” value (chloramphenicol 0 to 30 mg/l, minimal medium, 48 and 92 hours) is “inhibited at a lower chloramphenicol concentration than the mutant lacY_cat translational coupled strain”.
